The source of these data is patent US8829014B2, “Thiazole and thiophene analogues, and their use in treating autoimmune diseases and cancers” (Board of Supervisors of Louisiana State University and …, priority 2006, dated 2014).

The subject of one experiment is carageenan-induced edema. Kind of experiment: Carrageenan-induced rat paw edema test (anti-inflammatory activity). The experiment is classed as in vivo, Sprague-Dawley rats. Particulars: Rattus norvegicus, po, 3 h, rat paw edema, 50 mg/kg, reading 3 hours after carrageenan; [(Control−Test)/Control]×100%; read-out: % Protection P. As for the experimental part: Sprague-Dawley rats, male and female, 150-250 g will be used in an edema test. Rats will be deprived of food but not water for 18 hours prior to the experiment. The test compounds will be administered with a blunt-tipped needle orally, 50 mg/kg, as a suspension in 0.1% sodium CMC (carboxymethylcellulose) vehicle. Alternatively, the test compounds will be injected intravenously, subcutaneously, or intraperitoneally. One hour later, 0.1 ml of a 1% carrageenan solution in saline will be injected in the sub-plantar region of the right hind paw of each rat. […] The reading will be repeated 3 hours later. The displacement readings give a measure of carageenan-induced edema. Any reduction in carageenan-induced edema with a test compound, as compared to saline control, is a measure of the anti-inflammatory activity of the test compound. The percentage protection at 50-mg/kg doses was calculated according to the following formula: % Protection=[(Control−Test)/Control]×100%.
Following treatment, the media from the VSMC and HUVEC incubations were removed, and the amount of lactate dehydrogenase (LDH) released into the medium was determined with a commercial kit and expressed as a % increase over vehicle-treated cells. HPT toxicity was determined by the ethidium homodimer (EthHD) uptake assay. […] The lead compounds were also tested in two pairs of cell lines from the skin or prostate, one tumorigenic and one non-tumorigenic, to test for differing toxicity or heightened sensitivity in the tumorigenic lines. The cells were treated for 48 h with vehicle (0.1% DMSO) or 10 μM of each drug candidate, and the viability of the cells was determined by the MTT assay, expressed as a % decrease in viability compared to vehicle-treated cells. The in vivo inflammation model measured the % inhibition of rat paw edema induced by carageenan injection.
For the compound `CCN(CC)C(/C=N/C(=S)NC(=O)c1ccccc1)c1ccccc1` (stereo not shown) [Example 38, 1-Benzoyl-3-[1-diethylamino-1-phenyl-eth-(E)-ylidene]-thiourea], the inhibition in vivo at 50 mg/kg stood at 10.9%.
On the same count and under the same terms, the same measure for `O=C(c1ccccc1)c1cc(-c2ccccc2)c(N2CCOCC2)s1` [Example 42, (5-Morpholin-4-yl-4-phenyl-thiophen-2-yl)-phenyl-methanone]: 53.5%; for `O=C(c1ccc(Cl)cc1)c1cc(-c2ccccc2)c(N2CCOCC2)s1` [Example 45, (4-Chloro-phenyl)-(5-morpholin-4-yl-4-phenyl-thiophene-2-yl)-methanone]: 53.5%.
Still for that read-out and setting: the same measure for `O=C(c1cc(-c2ccccc2)c(N2CCOCC2)s1)c1ccc(Cl)cc1Cl` [Example 46, (2,4-Dichloro-phenyl)-(5-morpholin-4-yl-4-phenyl-thiophene-2-yl)-methanone]: 68.3%; for `CS(=O)(=O)c1ccc(C(=O)c2cc(-c3ccccc3)c(N3CCOCC3)s2)cc1` [Example 48, (4-Methylsulfonyl-phenyl)-(5-morpholin-4-yl-4-phenyl-thiophene-2-yl)-methanone]: 30%; for `O=C(c1cccnc1)c1cc(-c2ccccc2)c(N2CCOCC2)s1` [Example 50, (5-Morpholin-4-yl-4-phenyl-thiophene-2-yl)-pyridine-3-yl-methanone]: 6.9%.
As for `CS(=O)(=O)c1ccc(-c2cc(C(=O)c3ccccc3)sc2N2CCOCC2)cc1` [Example 54, [4-(4-Methanesulfonyl-phenyl)-5-morpholin-4-yl-thiophene-2-yl]-phenyl-methanone], the inhibition in vivo at 50 mg/kg was 17.8%.
In the case of `Cc1ccc(C(=O)c2cc(-c3ccc(S(C)(=O)=O)cc3)c(N3CCOCC3)s2)cc1` [Example 55, [4-(4-Methanesulfonyl-phenyl)-5-morpholin-4-yl-thiophene-2-yl]-p-tolyl-methanone], the inhibition in vivo at 50 mg/kg is -13.5%.
The same measure, in the same setting: the result for `CS(=O)(=O)c1ccc(-c2cc(C(=O)c3ccc(Cl)cc3)sc2N2CCOCC2)cc1` [Example 57, (4-Chloro-phenyl)-[4-(4-methanesulfonyl-phenyl)-5-morpholin-4-yl-thiophen-2-yl]-methanone] reads 26.9%.
In the case of `CS(=O)(=O)c1ccc(-c2cc(C(=O)c3ccc(Cl)cc3Cl)sc2N2CCOCC2)cc1` [Example 58, (2,4-Dichloro-phenyl)-[4-(4-methanesulfonyl-phenyl)-5-morpholin-4-yl-thiophen-2-yl]-methanone], the inhibition in vivo at 50 mg/kg is 50%.
On the same count and under the same terms, the result for `CSc1ccc(C(=O)c2cc(-c3ccc(S(C)(=O)=O)cc3)c(N3CCOCC3)s2)cc1` [Example 59, [4-(4-Methanesulfonyl-phenyl)-5-morpholin-4-yl-thiophene-2-yl]-(4-methylsulfanyl-phenyl)-methanone] reads 45.8%; that for `CS(=O)(=O)c1ccc(C(=O)c2cc(-c3ccc(S(C)(=O)=O)cc3)c(N3CCOCC3)s2)cc1` [Example 60, (4-Methanesulfonyl-phenyl)-[4-(4-methansulfonyl-phenyl)5-morpholin-4-yl-thiophene-2-yl]-methanone], 59.9%.
Still for that read-out and setting: the same measure for `CC(=O)Nc1ccc(C(=O)c2cc(-c3ccc(S(C)(=O)=O)cc3)c(N3CCOCC3)s2)cc1` [Example 61, N-{4-[4-(4-Methansulfonyl-phenyl)-5-morpholin-4-yl-thiophene-2carbonyl]-phenyl}-acetamide]: 25%; for `CS(=O)(=O)c1ccc(-c2cc(C(=O)c3cccnc3)sc2N2CCOCC2)cc1` [Example 62, [4-(4-Methanesulfonyl-phenyl)-5-morpholin-4-yl-thiophene-2-yl]-pyridin-3-yl-methanone]: 0%.
`CC(=O)Nc1ccc(-c2cc(C(=O)c3ccc(C)cc3)sc2N2CCOCC2)cc1` [Example 67, N-{4-[5-(4-Methyl-benzoyl)-2-morpholin-4-yl-thiophene-3-yl]-phenyl}-acetamide]: the inhibition in vivo at 50 mg/kg is 7.67%.
Same read-out and setting: the result for `COc1ccc(C(=O)c2cc(-c3ccc(NC(C)=O)cc3)c(N3CCOCC3)s2)cc1` [Example 68, N-{4-[5-(4-Methoxy-benzoyl)-2-morpholin-4-yl-thiophene-3-yl]-phenyl}-acetamide] reads 40%; that for `CC(=O)Nc1ccc(-c2cc(C(=O)c3ccc(Cl)cc3)sc2N2CCOCC2)cc1` [Example 69, N-{4-[5-(4-Chloro-benzoyl)-2-morpholin-4-yl-thiophene-3-yl]-phenyl}-acetamide], -21.8%; that for `CC(=O)Nc1ccc(-c2cc(C(=O)c3ccc(S(C)(=O)=O)cc3)sc2N2CCOCC2)cc1` [Example 72, N-{4-[5-(4-Methansulfonyl-benzoyl)-2-morpholin-4-yl-thiophene-3-yl]-phenyl}-acetamide], 50%.
On to `CC(=O)Nc1ccc(-c2cc(C(=O)c3cccnc3)sc2N2CCOCC2)cc1` [Example 74, N-{4-[2-Morpholin-4-yl-5-(pyridine-3-carbonyl)-thiophene-3-yl]-phenyl}-acetamide], for which the inhibition in vivo at 50 mg/kg came to 34%.
For the compound `O=C(c1ccccc1)c1cc(-c2ccc(Cl)cc2)c(N2CCOCC2)s1` [Example 78, [4-(4-Chloro-phenyl)-5-morpholin-4-yl-thiophen-2-yl]-phenyl-methanone], the inhibition in vivo at 50 mg/kg was -48.3%.
`Cc1ccc(C(=O)c2cc(-c3ccc(Cl)cc3)c(N3CCOCC3)s2)cc1` [Example 79, [4-(4-Chloro-phenyl)-5-morpholin-4-yl-thiophen-2-yl]-p-tolyl-methanone]: the inhibition in vivo at 50 mg/kg is -31%.
As for `O=C(c1ccc(Cl)cc1)c1cc(-c2ccc(Cl)cc2)c(N2CCOCC2)s1` [Example 81, (4-Chloro-phenyl)-[4-(4-chloro-phenyl)-5-morpholin-4-yl-thiophen-2-yl]-methanone], the inhibition in vivo at 50 mg/kg was 20%.

Still in this experiment, the particulars now being: rat paw edema, 50 mg/kg, reading 3 hours after carrageenan; [(Control−Test)/Control]×100%.
As to “4-[3-Phenyl-5-(4,5,6-trimethoxy-pyridine-2-yl)-thiophen-2-yl]-morpholine [Example 39]”, the “% Protection P” value amounted to 19.65%.
Take “4-{3-(4-Chloro-phenyl)-5-[5-methyl-4-(2,2,2-trifluoro-ethoxy)-pyridin-2-yl]-thiophen-2-yl}-morpholine [Example 77]”: the “% Protection P” value worked out at 23%.
For the compound “4-{5-[5-Methyl5-(2,2,2-trifluoro-ethoxy)-pyridin-2-yl]-3-pyridin-4-yl-thiphen-2-yl}-morpholine [Example 101]”, the “% Protection P” value was 47%.
Take “4-{5-[5-Methyl-5-(2,2,2-trifluoro-ethoxy)-pyridin-2-yl]-3-pyridin-3-yl-thiphen-2-yl}-morpholine [Example 89]”: the “% Protection P” value is −18.05%.
For `CC(=O)Nc1ccc(-c2cc(C(=O)c3cc(OCC(F)(F)F)c(C)cn3)sc2N2CCOCC2)cc1` [Example 65, N(4-{5-[5-Methyl-4-(2,2,2-trifluoro-ethoxy)-pyridine-2-carbonyl]-2-morpholin-4-yl-thiophen-3-yl}-phenyl)-acetamide], the “% Protection P” value stood at 30%.
Turning to `CSc1ccc(C(=O)c2cc(-c3ccc(Cl)cc3)c(N3CCOCC3)s2)cc1` [Example 83, [4-(4-Chloro-phenyl)-5-morpholin-4-yl-thiophen-2-yl]-(4-methansulfanyl-phenyl)-methanone], the “% Protection P” value was 27%.
